Measurements taken from patent publication US10016382B2, “Method for decreasing skeletal muscle damage and/or oxidative stress in mammals” (LONZA INC., priority 2014, dated 2018).

How the values were obtained:
canine myoglobin = assay: Serum canine myoglobin ELISA (muscle damage biomarker), Example 1; type: in vivo, dog; details: for Change in Myoglobin, post-run minus pre-run: following 15 mile long run at 13 wk, mean ± SEM
Method: Blood Analysis: Serum samples were taken at three different times from each dog during the 90 day period. The blood samples were collected as follows: 1.) just prior to scanning each dog for body composition at the beginning of the study, 2.) prior to the long run on the 13th week, and 3.) following the long run on the 13th week. The serum samples were analyzed for Phosphocreatine Kinase and Canine Myoglobin to determine the amount of muscle protein leakage that occurred following the long run and TBARS and Total Antioxidant Capacity (TAC) were determined to evaluate the antioxidant status of each of the test dogs during the exercise program. The final blood sample was taken 24 hr after the long run to obtain maximum protein leakage based on previous similar types of exercise research with human athletes. Biomarkers and Assay Methods: Blood was drawn from each dog using a serum separator tube at three different times during the 90 day period: 1.) just prior to scanning each dog for body composition at the beginning of the study, 2.) prior to the long run on the 13th week, and 3.) following the long run on the 13th week. The final blood sample was taken 24 hr after the long run to obtain maximum protein leakage based on previous similar types of exercise research with human athletes. Each time after the blood was drawn it was allowed to clot before being centrifuged for 15 min at 2000 g at 4° C. Serum was aliquoted into 1.5 mL microcentrifuge tubes and stored at −80° C. until assays were ran following the end of the study. Creatine kinase (CK) and canine myoglobin were measured to determine the amount of muscle protein leakage that occurred following the long run. Thiobarbituric acid reactive substances (TBARS) and total antioxidant capacity (TAC) were measured to evaluate the antioxidant status of each of the test dogs during the exercise program. Serum samples were analyzed for total antioxidant capacity (TAC) and thiobarbituric acid reactive substances (TBARS) using commercially available colorimetric kits supplied by Cayman Chemical Company (Ann Arbor, Mich.) per manufacturer instructions. Serum canine myoglobin levels were determined using a commercially available ELISA supplied by Innovate Research (Novi, Mich.) per manufacturer instructions. Creatine kinase activity was determined colorimetrically using a commercially available kit supplied by BioVision (San Francisco, Calif.).

[1] = Body composition by DEXA scan, Example 2 part one; type: in vivo, dog; details: for Lean mass (LM) change / Total tissue mass change: over 14 week study
Source text: Each dog was also scanned for body composition as described in Example 1 just prior to the beginning of the study and twenty-four hours following the final endurance run.

[2] = Ex.2 part one, 250 mg/d, both sexes
[3] = Ex.2 part one, 250 mg/d, females

In the case of `C[N+](C)(C)C[C@H](O)CC(=O)[O-]` [L-carnitine], the “Myoglobin Least Sq Mean” value (canine myoglobin; Baseline) is reported as 10.1 ng/mL, the “Myoglobin Least Sq Mean” value (canine myoglobin; Baseline, F) is reported as 14.77 ng/mL and the “Myoglobin Least Sq Mean” value (canine myoglobin; Baseline, M) is reported as 5.43 ng/mL. For the same molecule, the “Myoglobin, serum, Mean” value (canine myoglobin; Ex.1, 250 mg/d, Baseline, both sexes) was 10.0 ng/mL, the “Myoglobin, serum, Mean” value (canine myoglobin; Ex.1, 250 mg/d, Baseline, females) was 17.6 ng/mL and the “Myoglobin, serum, Mean” value (canine myoglobin; Ex.1, 250 mg/d, Baseline, males) was 5.8 ng/mL. The “Myoglobin, serum, Mean” value (canine myoglobin; Ex.1, 250 mg/d, Post-run, both sexes) was 19.2 ng/mL, the “Myoglobin, serum, Mean” value (canine myoglobin; Ex.1, 250 mg/d, Post-run, females) was 24.5 ng/mL and the “Myoglobin, serum, Mean” value (canine myoglobin; Ex.1, 250 mg/d, Post-run, males) was 14.9 ng/mL. The “Myoglobin, serum, Mean” value (canine myoglobin; Ex.1, 250 mg/d, Pre-run, both sexes) was 9.0 ng/mL, the “Myoglobin, serum, Mean” value (canine myoglobin; Ex.1, 250 mg/d, Pre-run, females) was 8.4 ng/mL and the “Myoglobin, serum, Mean” value (canine myoglobin; Ex.1, 250 mg/d, Pre-run, males) was 9.3 ng/mL. The “Change in Myoglobin, post-run minus pre-run” value (canine myoglobin; Ex.1, 250 mg/d, females) was 6.11 ± 3.51 n = 6 ng/mL, the “Change in Myoglobin, post-run minus pre-run” value (canine myoglobin; Ex.1, 250 mg/d, males) was 7.04 ± 3.9 n = 10 ng/mL and the “Serum myoglobin values after exercise” value (canine myoglobin; Ex.1, 250 mg/d, post-run, summary text value, control 30.97) was 19.67 ng/mL. For the same molecule, the “Myoglobin Least Sq Mean” value (canine myoglobin; Post-run) was 19.67 ng/mL, the “Myoglobin Least Sq Mean” value (canine myoglobin; Post-run, F) was 24.46 ng/mL and the “Myoglobin Least Sq Mean” value (canine myoglobin; Post-run, M) was 14.88 ng/mL. The “Myoglobin Least Sq Mean” value (canine myoglobin; Pre-run) was 10.01 ng/mL, the “Myoglobin Least Sq Mean” value (canine myoglobin; Pre-run, F) was 11.06 ng/mL and the “Myoglobin Least Sq Mean” value (canine myoglobin; Pre-run, M) was 8.96 ng/mL. For the same molecule, the “Myoglobin Least Sq Mean” value (canine myoglobin; Treatment * Sex, F) was 14.77 ng/mL, the “Myoglobin Least Sq Mean” value (canine myoglobin; Treatment * Sex, M) was 5.43 ng/mL and the “Myoglobin Least Sq Mean” value (canine myoglobin; Treatment level, all dogs) was 10.1 ng/mL. For the same molecule, the “Myoglobin, mixed model Estimate, term Time[Post-run-Pre-run] * Treatment[L-carnitine]” value (canine myoglobin; serum, model term) was −7.625, the “Myoglobin, mixed model Estimate, term Time[Post-run-Pre-run] * Treatment[L-carnitine] * Sex[F]” value (canine myoglobin; serum, model term) was −3.63 and the “Myoglobin, mixed model Estimate, term Time[Pre-run-Baseline] * Treatment[L-carnitine]” value (canine myoglobin; serum, model term) was 0.3222. For the same molecule, the “Myoglobin, mixed model Estimate, term Time[Pre-run-Baseline] * Treatment[L-carnitine] * Sex[F]” value (canine myoglobin; serum, model term) was −0.369, the “Myoglobin, mixed model Estimate, term Treatment[L-carnitine]” value (canine myoglobin; serum, model term) was 1.653 and the “Myoglobin, mixed model Estimate, term Treatment[L-carnitine] * Sex[F]” value (canine myoglobin; serum, model term) was 1.582. For the same molecule, the “Increase in % fat mass” value ([1]; Ex.2 part one, 250 mg/d, females, vs 3.01% control females (p=0.3893)) was 1.58%, the “Lean mass (LM) change” value [1, 2] was 0.68 kg and the “Total tissue mass change” value [1, 2] was 0.74 kg. The “Lean mass (LM) change” value [1, 3] was 0.45 kg, the “Total tissue mass change” value [1, 3] was 0.78 kg and the “Lean mass (LM) change” value ([1]; Ex.2 part one, 250 mg/d, males) was 0.91 kg. The “Total tissue mass change” value ([1]; Ex.2 part one, 250 mg/d, males) was 0.70 kg, the “% Fat” value ([1]; Female, Change) was 1.58 ± 1.29% and the BMC ([1]; Female, Change) was 9.54 ± 6.72 g. For the same molecule, the BMD ([1]; Female, Change) was 0.0029 ± 0.005 g/cm2, the Fat ([1]; Female, Change) was 0.56 ± 0.35 kg and the “Lean Mass” value ([1]; Female, Change) was 0.45 ± 0.21 kg. The “Total Tissue” value ([1]; Female, Change) was 0.78 ± 0.27 kg, the “% Fat” value ([1]; Female, Final) was 18.43 ± 1.75% and the BMC ([1]; Female, Final) was 716.5 ± 30.63 g. For the same molecule, the BMD ([1]; Female, Final) was 0.58 ± 0.01 g/cm2, the Fat ([1]; Female, Final) was 4.62 ± 0.57 kg and the “Lean Mass” value ([1]; Female, Final) was 19.95 ± 0.65 kg. The “Total Tissue” value ([1]; Female, Final) was 24.34 ± 0.94 kg, the “% Fat” value ([1]; Female, Initial) was 16.85 ± 2.1% and the BMC ([1]; Female, Initial) was 706.96 ± 30.19 g. The BMD ([1]; Female, Initial) was 0.58 ± 0.01 g/cm2, the Fat ([1]; Female, Initial) was 4.07 ± 0.59 kg and the “Lean Mass” value ([1]; Female, Initial) was 19.49 ± 0.69 kg. For the same molecule, the “Total Tissue” value ([1]; Female, Initial) was 23.56 ± 0.86 kg, the “% Fat” value ([1]; Male, Change) was 0.49 ± 0.61% and the BMC ([1]; Male, Change) was 6.54 ± 6.57 g. The BMD ([1]; Male, Change) was 0.011 ± 0.005 g/cm2, the Fat ([1]; Male, Change) was 0.22 ± 0.2 kg and the “Lean Mass” value ([1]; Male, Change) was 0.91 ± 0.22 kg. The “Total Tissue” value ([1]; Male, Change) was 0.7 ± 0.19 kg, the “% Fat” value ([1]; Male, Final) was 14.81 ± 1.05% and the BMC ([1]; Male, Final) was 927.39 ± 25.32 g. The BMD ([1]; Male, Final) was 0.65 ± 0.01 g/cm2, the Fat ([1]; Male, Final) was 4.56 ± 0.36 kg and the “Lean Mass” value ([1]; Male, Final) was 26.54 ± 0.71 kg. For the same molecule, the “Total Tissue” value ([1]; Male, Final) was 30.67 ± 0.72 kg, the “% Fat” value ([1]; Male, Initial) was 14.31 ± 1.16% and the BMC ([1]; Male, Initial) was 920.86 ± 25.96 g. For the same molecule, the BMD ([1]; Male, Initial) was 0.64 ± 0.01 g/cm2, the Fat ([1]; Male, Initial) was 4.34 ± 0.42 kg and the “Lean Mass” value ([1]; Male, Initial) was 25.63 ± 0.58 kg. For the same molecule, the “Total Tissue” value ([1]; Male, Initial) was 29.97 ± 0.75 kg, the “% Fat” value ([1]; all dogs, Change) was 1.04 ± 0.71% and the BMC ([1]; all dogs, Change) was 8.04 ± 4.62 g. For the same molecule, the BMD ([1]; all dogs, Change) was 0.007 ± 0.003 g/cm2, the Fat ([1]; all dogs, Change) was 0.39 ± 0.2 kg and the “Lean Mass” value ([1]; all dogs, Change) was 0.68 ± 0.16 kg. The “Total Tissue” value ([1]; all dogs, Change) was 0.74 ± 0.16 kg, the “% Fat” value ([1]; all dogs, Final) was 16.62 ± 1.06% and the BMC ([1]; all dogs, Final) was 821.95 ± 28.14 g. The BMD ([1]; all dogs, Final) was 0.61 ± 0.01 g/cm2, the Fat ([1]; all dogs, Final) was 4.59 ± 0.33 kg and the “Lean Mass” value ([1]; all dogs, Final) was 23.24 ± 0.79 kg. The “Total Tissue” value ([1]; all dogs, Final) was 27.5 ± 0.84 kg, the “% Fat” value ([1]; all dogs, Initial) was 15.58 ± 1.2% and the BMC ([1]; all dogs, Initial) was 813.91 ± 28.38 g. For the same molecule, the BMD ([1]; all dogs, Initial) was 0.608 ± 0.01 g/cm2, the Fat ([1]; all dogs, Initial) was 4.2 ± 0.35 kg and the “Lean Mass” value ([1]; all dogs, Initial) was 22.56 ± 0.74 kg. The “Total Tissue” value ([1]; all dogs, Initial) was 26.76 ± 0.83 kg.
